Key:
Assay in all cases: KINOMEscan competition binding
Details in all cases: compound 10.0 µM
[1] = target: CDK3 (human) (UniProt Q00526)
[2] = target: EPHA6 (human) (UniProt Q9UF33)
[3] = target: HIPK1 (human) (UniProt Q86Z02)
[4] = target: MARK2 (human) (UniProt Q7KZI7)
[5] = target: CASK (human) (UniProt O14936)
[6] = target: MET (human) (UniProt P08581)
[7] = target: FGFR3 (human) (UniProt P22607)
[8] = target: BMPR1A (human) (UniProt P36894)
[9] = target: DDR1 (human) (UniProt Q08345)
[10] = target: ACVRL1 (human) (UniProt P37023)
[11] = target: TYK2 JH2 pseudokinase (human) (UniProt P29597)
[12] = target: NUAK2 (human) (UniProt Q9H093)
[13] = target: EGFR (human) (UniProt P00533)
[14] = target: GAK (human) (UniProt O14976)
[15] = target: RPS6KB1 (human) (UniProt P23443)
[16] = target: BTK (human) (UniProt Q06187)
BTK (human), sequence (Q06187 whole entry, looked up): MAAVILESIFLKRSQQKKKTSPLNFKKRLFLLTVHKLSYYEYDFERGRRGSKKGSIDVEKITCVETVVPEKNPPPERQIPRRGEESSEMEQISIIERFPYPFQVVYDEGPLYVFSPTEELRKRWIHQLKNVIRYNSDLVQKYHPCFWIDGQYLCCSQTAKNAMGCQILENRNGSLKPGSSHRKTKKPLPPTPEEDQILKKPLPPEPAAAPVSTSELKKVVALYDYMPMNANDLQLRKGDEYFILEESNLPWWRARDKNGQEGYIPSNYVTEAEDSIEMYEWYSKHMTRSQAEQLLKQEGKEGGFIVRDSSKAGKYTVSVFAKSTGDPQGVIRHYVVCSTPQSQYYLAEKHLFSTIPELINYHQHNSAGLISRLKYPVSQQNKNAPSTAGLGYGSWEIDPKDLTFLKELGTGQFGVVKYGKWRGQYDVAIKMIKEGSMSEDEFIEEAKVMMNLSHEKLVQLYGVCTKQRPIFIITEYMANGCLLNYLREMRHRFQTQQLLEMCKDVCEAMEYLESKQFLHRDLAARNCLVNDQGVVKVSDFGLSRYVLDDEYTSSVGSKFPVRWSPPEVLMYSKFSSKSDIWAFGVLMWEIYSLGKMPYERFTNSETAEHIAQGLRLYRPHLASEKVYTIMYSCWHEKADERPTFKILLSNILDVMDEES

[17] = target: CDK8 (human) (UniProt P49336)
CDK8 (human), sequence (P49336 whole entry, looked up): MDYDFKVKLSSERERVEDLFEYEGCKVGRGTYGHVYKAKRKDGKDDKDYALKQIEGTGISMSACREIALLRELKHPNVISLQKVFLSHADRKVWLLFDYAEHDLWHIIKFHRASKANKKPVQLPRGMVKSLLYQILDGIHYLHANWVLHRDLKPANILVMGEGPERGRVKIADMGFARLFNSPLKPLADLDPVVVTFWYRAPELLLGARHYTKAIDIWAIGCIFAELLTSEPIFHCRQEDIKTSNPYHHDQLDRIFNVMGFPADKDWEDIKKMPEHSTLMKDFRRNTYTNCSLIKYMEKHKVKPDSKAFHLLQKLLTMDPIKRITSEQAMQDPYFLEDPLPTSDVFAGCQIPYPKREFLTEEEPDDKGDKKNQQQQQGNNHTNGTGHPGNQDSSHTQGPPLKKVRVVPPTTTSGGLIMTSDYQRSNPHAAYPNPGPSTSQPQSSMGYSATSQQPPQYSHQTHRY

[18] = target: LYN (human) (UniProt P07948)
[19] = target: MAPK9 (human) (UniProt P45984)
[20] = target: NEK7 (human) (UniProt Q8TDX7)
[21] = target: BRSK2 (human) (UniProt Q8IWQ3)
[22] = target: PRPF4B (human) (UniProt Q13523)
[23] = target: ITK (human) (UniProt Q08881)
ITK (human), sequence (Q08881 whole entry, looked up): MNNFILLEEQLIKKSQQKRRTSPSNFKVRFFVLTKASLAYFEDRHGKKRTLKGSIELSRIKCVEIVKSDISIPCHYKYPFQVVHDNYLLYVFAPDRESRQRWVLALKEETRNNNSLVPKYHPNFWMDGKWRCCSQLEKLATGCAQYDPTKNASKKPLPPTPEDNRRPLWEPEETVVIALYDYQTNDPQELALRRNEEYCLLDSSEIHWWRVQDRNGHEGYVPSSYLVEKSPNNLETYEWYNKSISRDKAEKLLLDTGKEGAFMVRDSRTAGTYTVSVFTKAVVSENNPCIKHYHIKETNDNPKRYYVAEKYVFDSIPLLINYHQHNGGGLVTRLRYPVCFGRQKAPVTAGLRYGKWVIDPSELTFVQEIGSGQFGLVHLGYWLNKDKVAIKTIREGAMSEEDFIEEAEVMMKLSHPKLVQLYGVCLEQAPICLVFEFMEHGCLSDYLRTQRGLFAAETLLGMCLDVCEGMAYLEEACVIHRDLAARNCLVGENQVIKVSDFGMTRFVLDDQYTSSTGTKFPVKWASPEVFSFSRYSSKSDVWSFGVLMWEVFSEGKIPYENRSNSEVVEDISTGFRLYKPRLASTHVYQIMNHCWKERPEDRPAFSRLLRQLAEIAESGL

[24] = target: RPS6KA1 KD1 (human) (UniProt Q15418)
[25] = target: MAP4K3 (human) (UniProt Q8IVH8)
[26] = target: FYN (human) (UniProt P06241)
[27] = target: MKNK1 (human) (UniProt Q9BUB5)
[28] = target: CDK7 (human) (UniProt P50613)
[29] = target: RIOK3 (human) (UniProt O14730)
[30] = target: LTK (human) (UniProt P29376)
LTK (human), sequence (P29376 whole entry, looked up): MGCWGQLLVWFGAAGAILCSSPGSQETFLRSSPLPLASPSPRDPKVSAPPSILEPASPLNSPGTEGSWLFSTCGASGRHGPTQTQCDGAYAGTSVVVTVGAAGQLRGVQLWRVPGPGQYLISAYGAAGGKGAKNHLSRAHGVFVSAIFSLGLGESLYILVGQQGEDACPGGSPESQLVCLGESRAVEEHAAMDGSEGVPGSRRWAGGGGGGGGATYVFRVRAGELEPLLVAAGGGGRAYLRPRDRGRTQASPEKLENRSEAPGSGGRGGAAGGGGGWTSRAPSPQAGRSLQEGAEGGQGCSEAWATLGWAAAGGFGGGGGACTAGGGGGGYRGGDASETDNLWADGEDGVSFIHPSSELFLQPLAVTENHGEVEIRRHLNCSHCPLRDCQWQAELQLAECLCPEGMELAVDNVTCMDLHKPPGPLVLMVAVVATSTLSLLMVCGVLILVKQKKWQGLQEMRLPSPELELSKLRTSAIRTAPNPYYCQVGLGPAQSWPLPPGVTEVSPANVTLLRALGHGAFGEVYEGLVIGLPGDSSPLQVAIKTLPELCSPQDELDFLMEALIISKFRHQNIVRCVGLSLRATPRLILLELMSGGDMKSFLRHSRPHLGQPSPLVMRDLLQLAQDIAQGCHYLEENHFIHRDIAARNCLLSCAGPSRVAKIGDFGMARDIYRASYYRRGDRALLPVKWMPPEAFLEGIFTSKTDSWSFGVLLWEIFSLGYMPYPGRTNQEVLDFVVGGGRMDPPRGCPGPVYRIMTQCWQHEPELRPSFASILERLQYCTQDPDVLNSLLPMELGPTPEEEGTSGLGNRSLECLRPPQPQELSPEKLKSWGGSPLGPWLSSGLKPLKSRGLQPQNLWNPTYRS

[31] = target: PIP4K2B (human) (UniProt P78356)
PIP4K2B (human), sequence (P78356 whole entry, looked up): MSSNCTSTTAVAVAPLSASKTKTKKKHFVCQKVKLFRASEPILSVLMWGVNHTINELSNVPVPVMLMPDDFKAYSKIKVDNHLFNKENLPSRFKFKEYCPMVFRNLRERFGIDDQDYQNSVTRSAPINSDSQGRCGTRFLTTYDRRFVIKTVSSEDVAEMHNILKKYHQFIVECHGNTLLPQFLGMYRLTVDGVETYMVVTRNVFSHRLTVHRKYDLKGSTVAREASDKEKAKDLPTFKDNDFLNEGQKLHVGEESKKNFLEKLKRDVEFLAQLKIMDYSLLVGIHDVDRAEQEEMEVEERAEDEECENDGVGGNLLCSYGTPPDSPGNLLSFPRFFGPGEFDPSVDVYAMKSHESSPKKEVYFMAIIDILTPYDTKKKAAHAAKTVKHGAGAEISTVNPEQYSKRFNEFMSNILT

[32] = target: ERN1 (human) (UniProt O75460)
[33] = target: MAPKAPK2 (human) (UniProt P49137)
MAPKAPK2 (human), sequence (P49137 whole entry, looked up): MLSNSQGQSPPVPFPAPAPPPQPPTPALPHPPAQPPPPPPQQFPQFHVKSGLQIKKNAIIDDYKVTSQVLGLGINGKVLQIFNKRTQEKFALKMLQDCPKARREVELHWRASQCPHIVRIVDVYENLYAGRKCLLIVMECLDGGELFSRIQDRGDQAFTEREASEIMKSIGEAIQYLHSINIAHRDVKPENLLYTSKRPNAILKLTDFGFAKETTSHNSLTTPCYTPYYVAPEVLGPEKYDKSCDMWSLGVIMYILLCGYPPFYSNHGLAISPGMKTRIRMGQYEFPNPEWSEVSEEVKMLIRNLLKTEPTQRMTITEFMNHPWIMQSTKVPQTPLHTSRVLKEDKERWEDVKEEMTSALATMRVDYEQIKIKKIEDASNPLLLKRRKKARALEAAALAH

[34] = target: NLK (human) (UniProt Q9UBE8)
[35] = target: KIT (human) (UniProt P10721)
[36] = target: ULK3 (human) (UniProt Q6PHR2)
ULK3 (human), sequence (Q6PHR2 whole entry, looked up): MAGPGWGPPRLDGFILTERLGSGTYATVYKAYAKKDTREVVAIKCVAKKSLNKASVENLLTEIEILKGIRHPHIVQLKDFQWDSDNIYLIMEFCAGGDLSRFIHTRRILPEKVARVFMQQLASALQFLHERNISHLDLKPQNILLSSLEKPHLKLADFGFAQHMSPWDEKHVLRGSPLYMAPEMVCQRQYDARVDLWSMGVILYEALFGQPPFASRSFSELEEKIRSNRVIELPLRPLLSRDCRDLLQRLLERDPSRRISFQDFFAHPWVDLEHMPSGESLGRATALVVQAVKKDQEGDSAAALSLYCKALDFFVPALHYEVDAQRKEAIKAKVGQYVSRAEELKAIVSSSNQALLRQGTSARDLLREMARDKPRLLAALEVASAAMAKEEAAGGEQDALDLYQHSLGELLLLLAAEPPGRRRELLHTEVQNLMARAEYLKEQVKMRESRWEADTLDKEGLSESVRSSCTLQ

[37] = target: CDC42BPB (human) (UniProt Q9Y5S2)
[38] = target: PRKACA (human) (UniProt P17612)
[39] = target: PIM1 (human) (UniProt P11309)
[40] = target: DYRK2 (human) (UniProt Q92630)

EPHA6 (human), sequence (Q9UF33 whole entry, looked up): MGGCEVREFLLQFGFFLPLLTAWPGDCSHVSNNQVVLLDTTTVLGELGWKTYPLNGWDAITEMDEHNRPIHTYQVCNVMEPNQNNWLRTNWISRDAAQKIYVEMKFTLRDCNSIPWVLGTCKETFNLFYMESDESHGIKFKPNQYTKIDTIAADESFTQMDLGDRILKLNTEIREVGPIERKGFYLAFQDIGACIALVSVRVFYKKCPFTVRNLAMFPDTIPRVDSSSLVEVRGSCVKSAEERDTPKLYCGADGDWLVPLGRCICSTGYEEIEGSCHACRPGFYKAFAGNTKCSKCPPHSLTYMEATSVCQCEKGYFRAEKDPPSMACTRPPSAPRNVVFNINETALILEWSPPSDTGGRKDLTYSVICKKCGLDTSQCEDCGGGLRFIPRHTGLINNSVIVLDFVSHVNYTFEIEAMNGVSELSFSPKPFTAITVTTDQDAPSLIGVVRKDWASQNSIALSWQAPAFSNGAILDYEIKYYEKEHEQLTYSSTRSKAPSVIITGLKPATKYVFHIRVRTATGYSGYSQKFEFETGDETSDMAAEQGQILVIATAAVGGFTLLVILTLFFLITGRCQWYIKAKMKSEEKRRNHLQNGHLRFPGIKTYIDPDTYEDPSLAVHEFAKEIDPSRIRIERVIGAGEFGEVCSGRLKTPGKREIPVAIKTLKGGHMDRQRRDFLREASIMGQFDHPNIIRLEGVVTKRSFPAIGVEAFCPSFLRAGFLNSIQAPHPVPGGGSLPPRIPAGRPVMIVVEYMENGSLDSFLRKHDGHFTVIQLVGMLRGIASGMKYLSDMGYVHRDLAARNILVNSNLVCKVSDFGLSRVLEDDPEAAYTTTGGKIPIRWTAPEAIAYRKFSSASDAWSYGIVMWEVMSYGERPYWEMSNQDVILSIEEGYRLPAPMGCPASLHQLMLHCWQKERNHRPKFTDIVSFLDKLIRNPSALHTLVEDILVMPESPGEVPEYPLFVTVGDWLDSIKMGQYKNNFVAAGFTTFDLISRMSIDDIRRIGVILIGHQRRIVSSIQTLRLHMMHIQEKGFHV

| SMILES | kinase still bound, per cent of control [1] [%] | kinase still bound, per cent of control [2] [%] | kinase still bound, per cent of control [3] [%] | kinase still bound, per cent of control [4] [%] | kinase still bound, per cent of control [5] [%] | kinase still bound, per cent of control [7] [%] | kinase still bound, per cent of control [8] [%] | kinase still bound, per cent of control [9] [%] | kinase still bound, per cent of control [10] [%] | kinase still bound, per cent of control [11] [%] | kinase still bound, per cent of control [12] [%] | kinase still bound, per cent of control [13] [%] | kinase still bound, per cent of control [14] [%] | kinase still bound, per cent of control [15] [%] | kinase still bound, per cent of control [16] [%] | kinase still bound, per cent of control [17] [%] | kinase still bound, per cent of control [18] [%] | kinase still bound, per cent of control [19] [%] | kinase still bound, per cent of control [20] [%] | kinase still bound, per cent of control [21] [%] | further results |
| --- | --- | --- | --- | --- | --- | --- | --- | --- | --- | --- | --- | --- | --- | --- | --- | --- | --- | --- | --- | --- | --- |
| CCCS(=O)(=O)Nc1ccc(F)c(C(=O)c2c[nH]c3ncc(Cl)cc23)c1F | 98 | 100 | 36 | 92 | 51 | 71 | 13 | 1.6 | 100 | 100 | 41 | 76 | 40 | 58 | 52 | 2.2 | 24 | 71 | 59 | 86 | kinase still bound, per cent of control [6]: 77%; kinase still bound, per cent of control [22]: 82%; kinase still bound, per cent of control [23]: 99%; kinase still bound, per cent of control [24]: 71%; kinase still bound, per cent of control [25]: 91%; kinase still bound, per cent of control [26]: 11%; kinase still bound, per cent of control [27]: 100%; kinase still bound, per cent of control [28]: 69%; kinase still bound, per cent of control [29]: 100%; kinase still bound, per cent of control [30]: 34%; kinase still bound, per cent of control [31]: 100%; kinase still bound, per cent of control [32]: 78%; kinase still bound, per cent of control [33]: 100%; kinase still bound, per cent of control [34]: 100%; kinase still bound, per cent of control [35]: 0.1%; kinase still bound, per cent of control [36]: 60%; kinase still bound, per cent of control [37]: 100%; kinase still bound, per cent of control [38]: 94%; kinase still bound, per cent of control [39]: 77% |
| CC1=C(C(=O)Nc2cc3cn[nH]c3cc2F)C(c2ccc(C(F)(F)F)cc2)CC(=O)N1 (configuration not stated) | 77 | 95 | 75 | 99 | 88 | 81 | 17 | 100 | 100 | 100 | 6 | 40 | 100 | 50 | 14 | 79 | 72 | 92 | 78 | 90 | kinase still bound, per cent of control [6]: 51%; kinase still bound, per cent of control [22]: 86%; kinase still bound, per cent of control [23]: 74%; kinase still bound, per cent of control [24]: 72%; kinase still bound, per cent of control [25]: 77%; kinase still bound, per cent of control [26]: 82%; kinase still bound, per cent of control [27]: 100%; kinase still bound, per cent of control [28]: 58%; kinase still bound, per cent of control [29]: 100%; kinase still bound, per cent of control [30]: 100%; kinase still bound, per cent of control [31]: 100%; kinase still bound, per cent of control [32]: 71%; kinase still bound, per cent of control [33]: 100%; kinase still bound, per cent of control [34]: 92%; kinase still bound, per cent of control [35]: 90%; kinase still bound, per cent of control [36]: 99%; kinase still bound, per cent of control [37]: 22%; kinase still bound, per cent of control [40]: 100%; kinase still bound, per cent of control [39]: 88% |
| COc1cc2c(Nc3ccc(NC(=O)c4ccccc4)cc3)ncnc2cc1OCCCN1CCOCC1 | 100 | 85 | 14 | 81 | 100 | 67 | 37 | 36 | 85 | 83 | 94 | 0.65 | 60 | 7.4 | 7.3 | 100 | 7.2 | 27 | 100 | 100 | kinase still bound, per cent of control [22]: 97%; kinase still bound, per cent of control [23]: 100%; kinase still bound, per cent of control [24]: 72%; kinase still bound, per cent of control [25]: 70%; kinase still bound, per cent of control [26]: 55%; kinase still bound, per cent of control [27]: 100%; kinase still bound, per cent of control [28]: 6.5%; kinase still bound, per cent of control [29]: 100%; kinase still bound, per cent of control [30]: 6.3%; kinase still bound, per cent of control [31]: 100%; kinase still bound, per cent of control [32]: 74%; kinase still bound, per cent of control [33]: 100%; kinase still bound, per cent of control [34]: 100%; kinase still bound, per cent of control [35]: 0%; kinase still bound, per cent of control [36]: 7.3%; kinase still bound, per cent of control [37]: 100%; kinase still bound, per cent of control [40]: 91%; kinase still bound, per cent of control [38]: 100%; kinase still bound, per cent of control [39]: 100% |

From the kinase profiling compilation of Christmann-Franck et al. (2016)
